Results reported in paper PMC10610505, “Synthesis and Biological Evaluation of Some New 3-Aryl-2-thioxo-2,3-dihydroquinazolin-4(1H)-ones and 3-Aryl-2-(benzylthio)quinazolin-4(3H)-ones as Antioxidants; COX-2, LDHA, α-Glucosidase and α-Amylase Inhibitors; and Anti-Colon Carcinoma and Apoptosis-Inducing Agents” (Pharmaceuticals, 2023).
Read-outs that look alike come from different tables or passages of the source.

Columns and labels:
[1] = DPPH radical scavenging assay; assay type: biochemical; conditions: for Mean IC50 for scavenging initial DPPH radicals: mean ± SD of three replicates; for IC50: mean ± SD, converted from mg/mL, read-out: Mean IC50 for scavenging initial DPPH radicals (converted)
Excerpt: In principle, the antioxidant power of a compound in this assay is correlated to its tendency to reduce the stable, purple-colored DPPH radical through a hydrogen atom transfer (HAT) mechanism and/or a single electron transfer mechanism, thereby converting it to the yellow-colored 2,2-diphenyl-1-picrylhydrazine, whereby this reduction is accompanied by a depletion in the amount of the initial DPPH radicals and a change in the absorbance of the test solution accordingly, which can be detected relative to the blank solution at λ = 517 nm.
The antioxidant potencies of all synthesized compounds were investigated using a 1,1 diphenyl-2-picrylhydrazyl (DPPH) radical scavenging assay according to the protocol described by Bersuder et al.. In brief, a 0.5 mL volume of DPPH ethanolic solution was mixed with an equal volume of each sample concentration (i.e., the test compound or butylated hydroxytoluene, BHT, which was used as the reference antioxidant in the positive control experiment), shaken strongly, and incubated at room temperature for 1 h in darkness. The absorbance of the residual DPPH radicals was measured at λ = 519 nm and compared to the negative control (without the test compound or reference antioxidant). The DPPH radical scavenging power was calculated using the following formula: scavenging efficiency (%) = (1 − Acompound/AControl) × 100, where Acompound and Acontrol are the absorbance of the tested compound and the negative control, respectively. […] Additionally, the ± SD values were calculated from three independent triplicate measurements.

[2] = system: HCT-116 human colon carcinoma cells; test: Viability assay (LDH release), HCT-116; assay type: cell-based; conditions: for viability at 200 µg/mL: Homo sapiens, read-out: Mean % of viable cells ± SD, HCT-116
Procedure: (§1) The anticancer activities of all the synthesized compounds were assessed against two human colon carcinoma cell lines, namely LoVo and HCT-116 (Table 6), via the determination of the mean percents of the viable cancerous cells remaining after being incubated with 200 µg/mL of each test compound for 48 h using LDH assay.
(§2) The samples were diluted in Dulbecco’s Modified Eagle’s Medium, consisting of 10% fetal bovine serum (FBS), added to cells grown and cultured for 24 h in a 5% CO2-humidified incubator at 37 °C. Thereafter, the activity of lactate dehydrogenase released from damaged cells was determined in the collected supernatant aliquots using an ELISA end-point assay (Benchmark Plus, Bio-Rad, CA, USA); 0.1% Triton X-100 in the assay medium and the assay medium only were used as the positive and negative controls, respectively. Cell viability was expressed as a relative percentage of the OD values (at 550 nm) for compound-treated cells (final concentration of 200 µg /mL) and the negative control, which was shown as the mean % ± SD (n = 3). The results of the viability assays for the potential cytotoxic candidates were compared with the % of viable human umbilical vein endothelial cells (HUVEC) at the same concentration. These cells were grown in Dulbecco’s Modified Eagle’s Medium (PAN-Biotech; Barcelona, Spain) containing 10% FBS (Sigma Aldrich; St. Quentin-Fallavier, France), 2 mM Glutamine (Sigma Aldrich), 100 units/mL penicillin and […] streptomycin (Life Technologies; Paisley, UK).

[3] = system: LoVo human colon carcinoma cells; test: Viability assay (LDH release), LoVo; assay type: cell-based; conditions: for viability at 200 µg/mL: Homo sapiens, LoVo, 48 h, read-out: Mean % of viable cells ± SD, LoVo
Procedure: as §1, §2

COX-2 = target: T1, COX-2 (Homo sapiens, UniProt P35354); test: COX-2 inhibitory screening assay (Cayman kit); assay type: biochemical; conditions: for Increase in COX-2 inhibitory efficiency by duplicating the concentration: % inhibition at 0.200 mg/mL divided by % inhibition at 0.100 mg/mL; for inhibition at 100 µg/mL: at 0.100 mg/mL; for inhibition at 100 µg/mL / inhibition at 200 µg/mL: read-out: COX-2 mean % inhibition ± SD; for inhibition at 200 µg/mL: at 0.200 mg/mL
T1 construct: purchased Cayman Chemical Company 701080
T1 sequence (P35354 18-604): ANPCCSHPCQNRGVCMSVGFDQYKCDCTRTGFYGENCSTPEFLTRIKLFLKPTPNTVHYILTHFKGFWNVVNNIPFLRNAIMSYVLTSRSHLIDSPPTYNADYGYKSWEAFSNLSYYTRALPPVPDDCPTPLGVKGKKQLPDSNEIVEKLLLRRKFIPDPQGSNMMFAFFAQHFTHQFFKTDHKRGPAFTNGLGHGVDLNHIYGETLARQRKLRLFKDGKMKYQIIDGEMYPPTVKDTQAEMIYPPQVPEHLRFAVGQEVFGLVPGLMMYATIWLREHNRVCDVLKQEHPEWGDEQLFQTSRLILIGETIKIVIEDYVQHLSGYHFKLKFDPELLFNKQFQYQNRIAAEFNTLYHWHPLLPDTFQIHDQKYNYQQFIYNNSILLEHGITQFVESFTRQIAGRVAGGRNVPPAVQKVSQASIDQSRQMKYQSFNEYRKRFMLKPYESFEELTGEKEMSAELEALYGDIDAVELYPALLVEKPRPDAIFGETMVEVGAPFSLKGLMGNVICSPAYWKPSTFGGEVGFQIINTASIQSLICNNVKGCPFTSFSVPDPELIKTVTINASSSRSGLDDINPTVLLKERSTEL
Procedure: Each compound of the two series, 3a–h and 5a–h, was resuspended in 100% DMSO at a final concentration of 10 mg/mL. […] Briefly, 10 µL of the tested compound was added to a mixture of the reaction buffer solution (160 µL of 0.1 M Tris-HCl, pH 8.0, in the presence of 2 mM phenol and 5 mM EDTA), COX-2 (10 µL) and heme (10 µL). After a 10 min incubation at 37 °C, the reaction was started by adding arachidonic acid (10 µL), rapidly mixed and kept at 37 °C for 2 min. PGF2α generated via PGH2 reduction with stannous chloride (30 µL) was incubated at room temperature for 5 min. The PGF2α amount was then determined via an enzyme immunoassay. Prior to incubation with the COX-2 reaction (at room temperature 18 h), the 96-well plate was previously coated with a mouse anti-rabbit monoclonal antibody. Unbound reagents were removed by washing the plate followed by adding Ellman’s reagent to the well. The reaction product displaying a distinct yellow color was measured at 410 nm using a UV microplate reader. The % inhibition was calculated by comparing the PGF2α produced in the compound-treated samples with a control sample, using the following equation: % inhibition is equal to [([PGF2α]control − [PGF2α]sample) /[PGF2α ]control ] × 100. […] The COX-2 inhibitory efficiency was expressed as an inhibition percentage, which was determined via a comparison with the negative control experiments.

[4] = target: purified recombinant human LDHA protein (Homo sapiens, UniProt P00338); test: Lactate dehydrogenase A (LDHA) inhibitory assay; assay type: biochemical; conditions: for Fold change of LDHA inhibition as compared to 0.1 mg/mL: % inhibition at 0.200 mg/mL divided by % inhibition at 0.100 mg/mL; for inhibition at 100 µg/mL: at 0.1 mg/mL; for inhibition at 100 µg/mL / inhibition at 200 µg/mL: read-out: LDHA mean % inhibition ± SD; for inhibition at 200 µg/mL: at 0.2 mg/mL
Procedure: The LDHA inhibitory effectiveness was investigated by measuring the amounts of consumed NADH [73]. […] The fluorescence of NADH, which has an excitation wavelength of 340 nm and an emission wavelength of 460 nm, was detected using a spectrofluorometer. […] The LDHA inhibitory efficiency was expressed as an inhibition percentage, which was determined via a comparison with the negative control experiments.

α-amylase = test: In vitro α-amylase (AA) inhibition assay; conditions: mean ± SD of three replicates; for IC50: read-out: Mean IC50 α-Amylase (AA)
Procedure: Then, 180 µL of Labtest (the amylase substrate) was added and the samples were incubated for 8 min, followed by measuring the first reaction at 620 nm to obtain (X1). Afterwards, the reaction mixture was incubated for an additional 5 min at 37 °C; then, the second reaction was measured to obtain the final reading (X2). […] The results were expressed as IC50 µg/mL (as well as µM) and were determined from the standard curves.

Compound | Mean IC50 for scavenging initial DPPH radicals [1] [µg/mL] | IC50 [1] [µM] | viability at 200 µg/mL ([2]; HCT-116, 48 h) [%] | viability at 200 µg/mL [3] [%] | Increase in COX-2 inhibitory efficiency by duplicating the concentration (COX-2) [fold] | inhibition at 100 µg/mL (COX-2) [%] | inhibition at 200 µg/mL (COX-2) [%] | Fold change of LDHA inhibition as compared to 0.1 mg/mL [4] [fold] | inhibition at 100 µg/mL [4] [%] | inhibition at 200 µg/mL [4] [%] | IC50 (α-amylase) [µM] | Mean IC50 α-Amylase (AA) (α-amylase) [µg/mL] | viability at 200 µg/mL ([2]; HCT-116, 200 µg/mL, 48 h) [%] | viability at 200 µg/mL ([3]; 200 µg/mL) [%] | Mean % of viable cells, HCT-116 ([2]; positive control, 0.1%) [%] | Mean % of viable cells, LoVo ([3]; positive control, 0.1%) [%]
Cc1cc(C(C)(C)C)c(O)c(C(C)(C)C)c1 [BHT, butylated hydroxy toluene, reference compound] | 54 ± 6 | 245 | – | – | – | – | – | – | – | – | – | – | – | – | – | –
O=c1c2cc(Br)ccc2[nH]c(=S)n1-c1cccc(C(F)(F)F)c1 [Compound 3b, 6-Bromo-2-thioxo-3-(3-trifluoromethyl-phenyl)-2,3-dihydro-1H-quinazolin-4-one] | – | – | 70.7 ± 2.52 | 62 ± 3.61 | 1.72 | 6.25 ± 1.77 | 10.8 ± 2.48 | 1.45 | 29.1 ± 2.19 | 42.4 ± 1.91 | 427 | – | – | – | – | –
O=c1c2cc(Cl)ccc2[nH]c(=S)n1-c1ccc(C(F)(F)F)cc1 [Compound 3d, 6-Chloro-2-thioxo-3-(4-trifluoromethyl-phenyl)-2,3-dihydro-1H-quinazolin-4-one] | 179 ± 16 | 502 | 96 ± 1.73 | 87 ± 1.73 | 1.62 | 20.2 ± 1.13 | 32.8 ± 2.48 | 1.59 | 33.5 ± 2.12 | 53.5 ± 2.12 | 941 | 335.667 ± 3.055 | – | – | – | –
O=c1c2cc(Br)ccc2[nH]c(=S)n1-c1ccc(C(F)(F)F)cc1 [Compound 3e, 6-Bromo-2-thioxo-3-(4-trifluoromethyl-phenyl)-2,3-dihydro-1H-quinazolin-4-one] | 290 ± 28 | 723 | 92.3 ± 2.52 | 90.7 ± 3.51 | 1.50 | 10.4 ± 1.7 | 15.7 ± 0.495 | 1.62 | 22.1 ± 1.2 | 36 ± 1.34 | 628 | 252.00 ± 4.583 | – | – | – | –
COc1cc2[nH]c(=S)n(-c3ccc([N+](=O)[O-])cc3)c(=O)c2cc1OC [Compound 3h, 6,7-Dimethoxy-3-(4-nitro-phenyl)-2-thioxo-2,3-dihydro-1H-quinazolin-4-one] | 325 ± 7 | 904 | 70.3 ± 3.79 | 64 ± 3 | 1.900 | 14.6 ± 0.636 | 27.6 ± 2.19 | 1.47 | 29.9 ± 1.77 | 43.9 ± 1.56 | 339 | 122.000 ± 4.583 | – | – | – | –
O=c1c2cc(Cl)ccc2nc(SCc2ccccc2F)n1-c1cccc(C(F)(F)F)c1 [Compound 5a, 2-(2-Fluoro-benzylsulfanyl)-6-chloro-3-(3-trifluoromethyl-phenyl)-3H-quinazolin-4-one] | 80 ± 2 | 172 | – | – | 1.85 | 34.2 ± 1.7 | 63.1 ± 5.87 | 1.62 | 24 ± 1.7 | 38.9 ± 1.13 | 186 | 86.667 ± 4.509 | 89.7 ± 3.06 | 90.3 ± 1.53 | – | –
COc1cc2nc(SCc3cccc([N+](=O)[O-])c3)n(-c3cccc(C(F)(F)F)c3)c(=O)c2cc1OC [Compound 5c, 2-(3-Nitrobenzylsulfanyl)-6,7-dimethoxy-3(3-trifluoromethyl-phenyl)-3H-quinazolin-4-one] | 186 ± 6 | 359 | – | – | 1.41 | 18.6 ± 3.46 | 26.2 ± 4.03 | 1.67 | 8.55 ± 1.06 | 14.3 ± 1.56 | 381 | 197.333 ± 4.509 | 82.3 ± 2.52 | 78.3 ± 3.51 | – | –
COc1ccc(Br)c(CSc2nc3ccc(Br)cc3c(=O)n2-c2ccc(C(F)(F)F)cc2)c1 [Compound 5e, 2-(2-Bromo-5-methoxybenzylsulfanyl)-6-bromo-3-(4-trifluoromethyl-phenyl)-3H-quinazolin-4-one] | 225 ± 21 | 375 | – | – | 1.67 | 31 ± 2.83 | 51.6 ± 4.88 | 1.29 | 15.2 ± 1.77 | 19.6 ± 2.33 | 250 | 150.333 ± 3.512 | 79.7 ± 2.52 | 64.3 ± 2.08 | – | –
Triton X-100 [reference compound] | – | – | – | – | – | – | – | – | – | – | – | – | – | – | 0.000 | 0.000
